Reference: patent US20220340547A1, “INDOLE DERIVATIVE-CONTAINING INHIBITOR, PREPARATION METHOD THEREFOR AND APPLICATION THEREOF” (Shanghi Hansoh Biosoh Biomedical Co., Ltd., priority 2019, published 2022)

Key:
A431 cell line = assay: Proliferation of A431 cell line (CellTiter-Glo); type: cell-based; settings: Homo sapiens, A-431, 72 h
Description: Test Example 3. Determination of the Inhibitory Effect of the Compound of the Present Invention on the Proliferation of Ba/F3 EGFR Mutant Cell Line and A431 Cell Line
(§1) Experimental objective: The objective of this test example is to determine the inhibitory effect of the compound on the proliferation of Ba/F3 EGFR mutant cell line and A431 cell line
(§2) Experimental instruments: Microplate reader (BioTek Synergy H1), pipette (Eppendorf & Rainin).
(§3) A431 cells were cultured, and harvested after reaching a suitable density. The cells were adjusted to an appropriate cell concentration with the complete medium. The cell suspension were spread on a 96-well plate (90 μL per well), and the plate was placed in a 37° C., 5% CO2 incubator overnight to let the cells adhere to the wall. Solutions of the compound at different concentrations were formulated with DMSO and culture medium. Solvent control was set. The solution of the compound was added to the 96-well plate (10 L per well), and the plate was incubated in the 37° C., 5% CO2 incubator for 72 h. CellTiter-Glo solution was added and mixed well by shaking, and the plate was incubated in the dark for 10 minutes. The values were measured by BioTek Synergy H1 microplate reader.
(§4) Experimental Data Processing Method:
(§5) The inhibition rate was calculated using the […] signal value. The concentration and inhibition rate were fitted to a nonlinear regression curve by Graphpad Prism software to obtain the IC50 value.

[1] = biological target: Ba/F3 EGFR-D770-N771ins_SVD (Homo sapiens, UniProt P00533, DUP768-770, cells depend on it); assay: Proliferation of Ba/F3 EGFR mutant cell line (CellTiter-Glo); type: cell-based, mouse; settings: 72 h to 144 h, read-out: Ba/F3 EGFR-D770-N771ins_SVD IC50
Sequence of Ba/F3 EGFR-D770-N771ins_SVD (P00533 with tags, fused parts or gaps DUP768-770): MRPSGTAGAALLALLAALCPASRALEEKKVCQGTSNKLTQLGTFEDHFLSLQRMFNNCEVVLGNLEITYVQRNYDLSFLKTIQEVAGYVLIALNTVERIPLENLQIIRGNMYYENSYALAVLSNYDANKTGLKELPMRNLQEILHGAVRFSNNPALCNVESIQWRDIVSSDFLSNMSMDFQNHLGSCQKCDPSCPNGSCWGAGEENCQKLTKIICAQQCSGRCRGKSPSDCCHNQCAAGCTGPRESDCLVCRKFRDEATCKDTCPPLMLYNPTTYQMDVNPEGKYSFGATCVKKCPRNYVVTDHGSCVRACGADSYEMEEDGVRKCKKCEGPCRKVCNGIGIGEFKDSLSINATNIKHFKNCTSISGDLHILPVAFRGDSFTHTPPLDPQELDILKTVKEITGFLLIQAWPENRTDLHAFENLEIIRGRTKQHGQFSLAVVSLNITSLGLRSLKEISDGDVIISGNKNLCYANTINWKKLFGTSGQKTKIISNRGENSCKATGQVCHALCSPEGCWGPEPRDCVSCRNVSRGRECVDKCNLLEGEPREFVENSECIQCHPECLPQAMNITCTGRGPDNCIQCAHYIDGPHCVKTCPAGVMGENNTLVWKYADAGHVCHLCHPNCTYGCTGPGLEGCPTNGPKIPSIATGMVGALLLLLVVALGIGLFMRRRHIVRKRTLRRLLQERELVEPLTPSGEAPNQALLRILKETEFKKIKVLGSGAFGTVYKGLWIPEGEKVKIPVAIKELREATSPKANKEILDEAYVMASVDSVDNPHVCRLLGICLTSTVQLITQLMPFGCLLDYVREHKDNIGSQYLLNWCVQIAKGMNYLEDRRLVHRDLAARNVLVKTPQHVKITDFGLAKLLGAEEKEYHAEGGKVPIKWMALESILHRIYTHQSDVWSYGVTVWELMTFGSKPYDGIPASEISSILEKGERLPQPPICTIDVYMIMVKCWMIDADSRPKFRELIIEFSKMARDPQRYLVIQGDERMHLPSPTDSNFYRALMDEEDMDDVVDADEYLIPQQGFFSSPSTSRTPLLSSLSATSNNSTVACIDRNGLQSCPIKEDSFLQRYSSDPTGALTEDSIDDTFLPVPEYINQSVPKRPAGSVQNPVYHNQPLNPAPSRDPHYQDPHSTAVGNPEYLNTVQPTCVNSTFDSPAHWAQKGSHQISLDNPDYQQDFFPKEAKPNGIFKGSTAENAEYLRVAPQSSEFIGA
Description: Determination of the Inhibitory Effect of the Compound of the Present Invention on the Proliferation of Ba/F3 EGFR Mutant Cell Line and A431 Cell Line
as §1, §2
as §3, with “Ba/F3 EGFR mutant” for “A431”, “The solution of the compound was added to the 96-well plate (10 L per well), and the plate was incubated in the 37° C., 5% CO2 incubator for 72 h.” left out
as §4, §5

EGFR D770_N771insNPG = EGFR D770_N771insNPG (Homo sapiens, UniProt P00533, INS770NPG); assay: TR-FRET inhibition of kinase activity of EGFR exon 20 insertion mutation; type: biochemical
Sequence of EGFR D770_N771insNPG (P00533 with tags, fused parts or gaps INS770NPG limits assumed): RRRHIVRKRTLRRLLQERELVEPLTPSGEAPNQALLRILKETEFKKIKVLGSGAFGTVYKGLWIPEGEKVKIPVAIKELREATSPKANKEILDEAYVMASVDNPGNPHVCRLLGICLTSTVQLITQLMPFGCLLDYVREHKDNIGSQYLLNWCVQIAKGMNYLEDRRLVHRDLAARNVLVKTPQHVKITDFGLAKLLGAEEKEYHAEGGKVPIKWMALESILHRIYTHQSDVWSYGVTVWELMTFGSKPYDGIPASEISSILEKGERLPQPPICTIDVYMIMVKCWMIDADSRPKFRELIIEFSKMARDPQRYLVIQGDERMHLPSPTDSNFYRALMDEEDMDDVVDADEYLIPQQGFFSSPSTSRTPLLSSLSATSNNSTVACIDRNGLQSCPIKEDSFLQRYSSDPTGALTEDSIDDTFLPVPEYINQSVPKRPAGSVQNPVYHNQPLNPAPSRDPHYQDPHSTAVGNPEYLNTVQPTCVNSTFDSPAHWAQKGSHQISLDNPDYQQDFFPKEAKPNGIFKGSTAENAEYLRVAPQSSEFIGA
Excerpt: Determination of the Inhibitory Effect of the Compound of the Present Invention on the Kinase Activity of EGFR Exon 20 Insertion Mutation
Experimental objective: The objective of this test example is to determine the inhibitory effect of the compound on the kinase activity of EGFR exon 20 insertion mutation.
Experimental process: The experiment applied the TR-FRET (time-resolved fluorescence resonance energy transfer) method to study the inhibitory effect of the compound on the kinase activity of EGFR exon 20 insertion mutation. The experiment was carried out in a 384-well plate. Experimental buffer (50 mM HEPES, 1 mM EGTA, 10 mM MgCl2, 2 mM DTT, 0.01% Tween-20) was formulated. The compound was diluted in gradient to different concentrations with the experimental buffer. 2.5 μL of the solution was added to each well of the 384-well plate. 2.5 μL of diluted EGFR kinase solution (0.001-0.5 nM) was added, and the plate was incubated at room temperature for 10 minutes. 5 μL of ULight-poly GT/ATP mixed solution was added, and the plate was incubated at room temperature for 30 to 60 minutes. 5 μL of EDTA stop solution and 5 μL of Eu-labeled antibody detection solution were added, and the plate was incubated at room temperature for 1 hour.
as §4
The concentration and inhibition rate were fitted to a nonlinear regression curve by Graphpad Prism software to obtain the IC50 value.

Row | SMILES | IC50 (A431 cell line) [nM] | GI50 [1] [nM] | IC50 (EGFR D770_N771insNPG) [nM]
1 | C=CC(=O)Nc1cc(Nc2ncc(C(=O)OC(C)C)c(-c3cn(C)c4ccccc34)n2)c(OC)cc1N1C[C@H]2CN(C)C[C@H]2C1 [Example 24, Isopropyl 2-((5-acrylamido-2-methoxy-4-(5-methylhexahydropyrrolo[3,4-c]pyrrol-2(1H)-yl)phenyl)amino)-4-(1-methyl-1H-indol-3-yl)pyrimidine-5-carboxylate] | 124 | 15 | 
2 | C=CC(=O)Nc1cc(Nc2ncc(C(=O)OC(C)C)c(-c3cn(C)c4ccccc34)n2)c(OC)cc1N1C[C@H]2CN(C)C[C@H]2C1 [Example 63, Isopropyl 2-((5-acrylamido-2-methoxy-4-((3aR,6aS)-5-methylhexahydropyrrolo[3,4-c]pyrrol-2(1H)-yl)phenyl)amino)-4-(1-methyl-1H-indol-3-yl)pyrimidine-5-carboxylate] |  |  | 0.62
4 | C=CC(=O)Nc1cc(Nc2ncc(-c3cnn(C)c3)c(-c3cn(C4CC4)c4ccccc34)n2)c(OC)cc1N1C[C@H]2CCN(C)[C@H]2C1 [Example 68] |  | 15.4 | 0.17
5 | C=CC(=O)Nc1cc(Nc2ncc(C#N)c(-c3cn(C4CC4)c4c(OC)cccc34)n2)c(OC)cc1N(C)CCN(C)C [Example 119, N-(5-((5-Cyano-4-(1-cyclopropyl-7-methoxy-1H-indol-3-yl)pyrimidin-2-yl)amino)-2-((2-(dimethylamino)ethyl)(methyl)amino)-4-methoxyphenyl)acrylamide] |  | 45.4 | 0.49
6 | C=CC(=O)Nc1cc(Nc2ncc(-c3cnn(C)c3)c(-c3cn(C4CC4)c4ccccc34)n2)c(OC)cc1N1C[C@H]2CN(C)C[C@H]2C1 [Example 43, N-(5-((4-(1-Cyclopropyl-1H-indol-3-yl)-5-(1-methyl-1H-pyrazol-4-yl)pyrimidin-2-yl)amino)-4-methoxy-2-((3aR,6aS)-5-methylhexahydropyrrolo[3,4-c]pyrrol-2(1H)-yl)phenyl)acrylamide] |  | 21 | 0.29
7 | C=CC(=O)Nc1cc(Nc2ncc(C#N)c(-c3cn(C4CC4)c4ncccc34)n2)c(OC)cc1N(C)CCN(C)C [Example 139, N-(5-((5-Cyano-4-(1-cyclopropyl-1H-pyrrolo[2,3-b]pyridin-3-yl)pyrimidin-2-yl)amino)-2-((2-(dimethylamino)ethyl)(methyl)amino)-4-methoxyphenyl)acrylamide] |  |  | 0.68
8 | C=CC(=O)Nc1cc(Nc2ncc(-c3cnn(C)c3)c(-c3cn(C4CC4)c4ccccc34)n2)c(OC)cc1N1C[C@@H]2CCN(C)[C@@H]2C1 [Example 65, N-(5-((4-(1-Cyclopropyl-1H-indol-3-yl)-5-(1-methyl-1H-pyrazol-4-yl)pyrimidin-2-yl)amino)-4-methoxy-2-((3aS,6aS)-1-methylhexahydropyrrolo[3,4-b]pyrrol-5(1H)-yl)phenyl)acrylamide] |  | 15.1 | 0.29
9 | CC#CC(=O)Nc1cc(Nc2ncc(C(=O)OC(C)C)c(-c3cn(C)c4ccccc34)n2)c(OC)cc1N(C)CC1CCCN1C (stereo not shown) [Example 1, Isopropyl 2-((5-(but-2-ynamido)-2-methoxy-4-(methyl((1-methylpyrrolidin-2-yl)methyl)amino)phenyl)amino)-4-(1-methyl-1H-indol-3-yl)pyrimidine-5-carboxylate] | 537 | 76 | 
10 | C=CC(=O)Nc1cc(Nc2ncc(C#N)c(-c3cn(C4CC4)c4cc(OC)ccc34)n2)c(OC)cc1N(C)CCN(C)C [Example 112, N-(5-((5-Cyano-4-(1-cyclopropyl-6-methoxy-1H-indol-3-yl)pyrimidin-2-yl)amino)-2-((2-(dimethylamino)ethyl)(methyl)amino)-4-methoxyphenyl)acrylamide] |  | 26.7 | 0.17
11 | C=CC(=O)Nc1cc(Nc2ncc(C#N)c(-c3cn(C4CC4)c4ccccc34)n2)c(OC)cc1N1CC(N(C)C)C1 [Example 74, N-(5-((5-Cyano-4-(1-cyclopropyl-1H-indol-3-yl)pyrimidin-2-yl)amino)-2-(3-(dimethylamino)azetidin-1-yl)-4-methoxyphenyl)acrylamide] |  |  | 0.64
12 | C=CC(=O)Nc1cc(Nc2ncc(-c3ccnn3C)c(-c3cn(C4CC4)c4ccccc34)n2)c(OC)cc1N1C[C@H]2CN(C)C[C@H]2C1 [Example 70, N-(5-((4-(1-Cyclopropyl-1H-indol-3-yl)-5-(1-methyl-1H-pyrazol-5-yl)pyrimidin-2-yl)amino)-4-methoxy-2-((3aR,6aS)-5-methylhexahydropyrrolo[3,4-c]pyrrol-2(1H)-yl)phenyl)acrylamide] |  | 47.4 | 
13 | C=CC(=O)Nc1cc(Nc2ncc(-c3ccc(F)cc3F)c(-c3cn(C4CC4)c4ccccc34)n2)c(OC)cc1N1C[C@H]2CN(C)C[C@H]2C1 [Example 69, N-(5-((4-(1-Cyclopropyl-1H-indol-3-yl)-5-(2,4-difluorophenyl)pyrimidin-2-yl)amino)-4-methoxy-2-((3aR,6aS)-5-methylhexahydropyrrolo[3,4-c]pyrrol-2(1H)-yl)phenyl)acrylamide] |  | 40 | 
14 | C=CC(=O)Nc1cc(Nc2ncc(C(=O)OC(C)C)c(-c3cn(C)c4ccccc34)n2)c(OC)cc1N1CC2(CN(C)C2)C1 [Example 26, Isopropyl 2-((5-acrylamido-2-methoxy-4-(6-methyl-2,6-diazaspiro[3.3]heptan-2-yl)phenyl)amino)-4-(1-methyl-1H-indol-3-yl)pyrimidine-5-carboxylate] |  |  | 0.36
15 | C=CC(=O)Nc1cc(Nc2ncc(C#N)c(-c3cn(C4CC4)c4ccccc34)n2)c(OC)cc1OCCN(C)C [Example 113, N-(5-((5-Cyano-4-(1-cyclopropyl-1H-indol-3-yl)pyrimidin-2-yl)amino)-2-(2-(dimethylamino)ethoxy)-4-methoxyphenyl)acrylamide] |  |  | 0.7
16 | C=CC(=O)Nc1cc(Nc2ncc(-c3cnn(C)c3)c(-c3cn(C4CC4)c4ccccc34)n2)c(OC)cc1N(C)CCN(C)C [Example 85, N-(5-((4-(1-Cyclopropyl-1H-indol-3-yl)-5-(1-methyl-1H-pyrazol-4-yl)pyrimidin-2-yl)amino)-2-((2-(dimethylamino)ethyl)(methyl)amino)-4-methoxyphenyl)acrylamide] |  | 17.4 | 0.27
17 | C=CC(=O)Nc1cc(Nc2ncc(C#N)c(-c3cn(C4CC4)c4ccccc34)n2)c(OC)cc1N1C[C@@H]2CCN(C)[C@@H]2C1 [Example 110, N-(5-((5-Cyano-4-(1-cyclopropyl-1H-indol-3-yl)pyrimidin-2-yl)amino)-4-methoxy-2-((3aS,6aS)-1-methylhexahydropyrrolo[3,4-b]pyrrol-5(1H)-yl)phenyl)acrylamide] |  |  | 0.53
18 | C=CC(=O)Nc1cc(Nc2ncc(C#N)c(-c3cn(C4CC4)c4cc(F)ccc34)n2)c(OC)cc1N(C)CCN(C)C [Example 114, N-(5-((5-Cyano-4-(1-cyclopropyl-6-fluoro-1H-indol-3-yl)pyrimidin-2-yl)amino)-2-((2-(dimethylamino)ethyl)(methyl)amino)-4-methoxyphenyl)acrylamide] |  | 42.5 | 0.61
19 | C=CC(=O)Nc1cc(Nc2ncc(C#N)c(-c3cn(C4CC4)c4ccccc34)n2)c(OC)cc1N1CC[C@H](N(C)C)C1 [Example 77, (S)—N-(5-((5-cyano-4-(1-cyclopropyl-1H-indol-3-yl)pyrimidin-2-yl)amino)-2-(3-(dimethylamino)pyrrolidin-1-yl)-4-methoxyphenyl)acrylamide] |  |  | 0.91
